Data on twelve compounds can be found in patent US20220106272A1 (Terran Biosciences, Inc., priority 2018, published 2022).

The nature of the series: Metabolic stability in human liver microsomes. Type of series: in vitro ADME. Particulars: 0.25 μM test compound; for half-life at 0.25 μM: 2 mM NADPH, 37° C.; for CLint scaled at 0.25 μM: human liver microsomes. The method, then:
Microsomal Assay: Human liver microsomes (20 mg/mL) were obtained from Xenotech, LLC (Lenexa, Kans.). β-nicotinamide adenine dinucleotide phosphate, reduced form (NADPH), magnesium chloride (MgCl2), and dimethyl sulfoxide (DMSO) were purchased from Sigma-Aldrich.
Determination of Metabolic Stability: 7.5 mM stock solutions of test compounds of structural formula (I) (e.g., of an embodiment or aspect of embodiment thereof described herein) or structural formula (II), or pharmaceutically acceptable salt thereof, were prepared in DMSO. The 7.5 mM stock solutions were diluted to 12.5-50 μM in acetonitrile (ACN). The 20 mg/mL human liver microsomes were diluted to 0.625 mg/mL in 0.1 M potassium phosphate buffer, pH 7.4, containing 3 mM MgCl2. The diluted microsomes were added to wells of a 96-well deep-well polypropylene plate in triplicate. A 10 μL aliquot of the 12.5-50 μM test compound was added to the microsomes and the mixture was pre-warmed for 10 minutes. Reactions were initiated by addition of pre-warmed NADPH solution. The final reaction volume was 0.5 mL and contained […] human liver microsomes, 0.25 μM test compound, and 2 mM NADPH in 0.1 M potassium phosphate buffer, pH 7.4, and 3 mM MgCl2. The reaction mixtures were incubated at 37° C., and 50 μL aliquots were removed at 0, 5, 10, 20, and 30 minutes and added to shallow-well 96-well plates which contain 50 μL of ice-cold ACN (acetonitrile) with internal standard to stop the reactions. The plates were stored at 4° C. for 20 minutes after which 100 μL of water was added to the wells of the plate before centrifugation to pellet precipitated proteins. Supernatants were transferred to another 96-well plate and analyzed for amounts of parent remaining by LC-MS/MS using an Applied Bio-systems API 4000 mass spectrometer. The same procedure was followed for the non-deuterated counterpart of the compound of Formula I and the positive control, 7-ethoxycoumarin (1 μM). Testing was done in triplicate.
Data analysis: The in vitro t1/2s for test compounds were calculated from the slopes of the linear regression of % parent remaining (ln) vs incubation time relationship.
k=−[slope of linear regression of % parent remaining (ln) vs incubation time]
The apparent intrinsic clearance was calculated using the following equation:
CLint(mL/min/kg)=(0.693/in vitro t1/2)(Incubation Volume/mg of microsomes)(45 mg microsomes/gram of liver)(20 gm of liver/kg b.w.)
Data analysis was performed using Microsoft Excel Software.
(In general: Liver microsomes are vesicles of endoplasmic reticulum, rich in cytochrome P450 enzymes.)

Setting [1] is: pH 7.4, EXP# 2503, 4.0 mg/mL human liver microsomes.
[2] abbreviates: pH 7.4, EXP#2503, apparent intrinsic clearance.
Setting [3] is: pH 7.4, EXP# 2506, 4.0 mg/mL human liver microsomes.
Setting [4] is: pH 7.4, EXP# 2506, apparent intrinsic clearance.

The term half-life denotes the time needed for the level to fall by half in the phase considered. A low value points to fast loss. By CLint scaled is commonly meant a measure of how fast metabolising enzymes remove a compound, apart from limits set by blood flow. `[2H]C([2H])([2H])Oc1cccc([C@H](O)C2([2H])C([2H])([2H])C([2H])([2H])N(C([2H])([2H])C([2H])([2H])c3ccc(F)cc3)C([2H])([2H])C2([2H])[2H])c1OC([2H])([2H])[2H]` [Compound 383, (R)-(2,3-bis(methoxy-d3)phenyl)(1-(2-(4-fluorophenyl)ethyl-1,1,2,2-d4)piperidin-4-yl-2,2,3,3,4,5,5,6,6-d9)methanol] came in with a half-life at 0.25 μM under setting [1] of 1.23 h. Moreover, the CLint scaled at 0.25 μM under setting [2] was 2.3 mL/min/kg.
`[2H]C([2H])([2H])Oc1cccc([C@H](O)C2([2H])C([2H])([2H])C([2H])([2H])N(CCc3ccc(F)cc3)C([2H])([2H])C2([2H])[2H])c1OC([2H])([2H])[2H]` [Compound 347, (R)-(2,3-bis(methoxy-d3)phenyl)(1-(4-fluorophenethyl)piperidin-4-yl-2,2,3,3,4,5,5,6,6-d9)methanol] displayed a half-life at 0.25 μM under setting [1] of 0.815 h. The CLint scaled at 0.25 μM under setting [2] turned out to be 3.2 mL/min/kg.
Turning to `[2H]C([2H])([2H])Oc1cccc([C@H](O)C2CCN(C([2H])([2H])C([2H])([2H])c3ccc(F)cc3)CC2)c1OC([2H])([2H])[2H]` [Compound 159, (R)-(2,3-bis(methoxy-d3)phenyl)(1-(2-(4-fluorophenyl)ethyl-1,1,2,2-d4)piperidin-4-yl)methanol], the half-life at 0.25 μM under setting [3] came out at 1.42 h. Moreover, the CLint scaled at 0.25 μM under setting [4] was 1.9 mL/min/kg.
For the compound `COc1cccc([C@H](O)C2CCN(CCc3ccc(F)cc3)CC2)c1OC` [volinanserin, (R)-(+)-α-(2,3-dimethoxyphenyl)-1-[2-(4-fluorophenyl)ethyl]-4-piperidinemethanol, reference compound], the half-life at 0.25 μM under setting [1] was found to be 0.745 h and the half-life at 0.25 μM under setting [3] worked out at 0.808 h. The CLint scaled at 0.25 μM reads like this: under setting [2], 3.5 mL/min/kg; under setting [4], 3.2 mL/min/kg.
Under setting [3], `[2H]C([2H])([2H])Oc1cccc([C@]([2H])(O)C2CCN(CCc3ccc(F)cc3)CC2)c1OC([2H])([2H])[2H]` [Compound 148, (R)-(2,3-bis(methoxy-d3)phenyl)(1-(4-fluorophenethyl)piperidin-4-yl)methan-d-ol] came in with a half-life at 0.25 μM of 1.19 h. Also, the intrinsic clearance (CLint scaled) at 0.25 μM under setting [4] was found to be 2.2 mL/min/kg.
Under setting [3], `[2H]C([2H])([2H])Oc1cccc([C@H](O)C2CCN(CCc3ccc(F)cc3)CC2)c1OC` [Compound 115, (R)-(1-(4-fluorophenethyl)piperidin-4-yl)(2-methoxy-3-(methoxy-d3)phenyl)methanol] showed a half-life at 0.25 μM of 1.16 h. For the same compound, the CLint scaled at 0.25 μM under setting [4] is 2.3 mL/min/kg.
`[2H]C([2H])(Cc1ccc(F)cc1)N1C([2H])([2H])C([2H])([2H])C([2H])([C@@H](O)c2cccc(OC)c2OC)C([2H])([2H])C1([2H])[2H]` [Compound 215, (R)-(2,3-dimethoxyphenyl)(1-(2-(4-fluorophenyl)ethyl-1,1-d2)piperidin-4-yl-2,2,3,3,4,5,5,6,6-d9)methanol] gave a half-life at 0.25 μM under setting [1] of 0.777 h. Moreover, the CLint scaled at 0.25 μM under setting [2] was found to be 3.4 mL/min/kg.
Take `[2H]C([2H])([2H])Oc1cccc([C@H](O)C2CCN(CCc3ccc(F)cc3)CC2)c1OC([2H])([2H])[2H]` [Compound 147, (R)-(2,3-bis(methoxy-d3)phenyl)(1-(4-fluorophenethyl)piperidin-4-yl)methanol]: under setting [3], the half-life at 0.25 μM was determined as 1.12 h. In addition, the CLint scaled at 0.25 μM under setting [4] was 2.3 mL/min/kg.
Take `[2H]C([2H])([2H])Oc1cccc([C@H](O)C2CCN(C([2H])([2H])Cc3ccc(F)cc3)CC2)c1OC([2H])([2H])[2H]` [Compound 151, (R)-(2,3-bis(methoxy-d3)phenyl)(1-(2-(4-fluorophenyl)ethyl-1,1-d2)piperidin-4-yl)methanol]: under setting [3], the half-life at 0.25 μM came out at 1.17 h. In addition, under setting [4], the CLint scaled at 0.25 μM was determined as 2.3 mL/min/kg.
Compound `[2H]C1([2H])N(CCc2ccc(F)cc2)C([2H])([2H])C([2H])([2H])C([2H])([C@@H](O)c2cccc(OC)c2OC)C1([2H])[2H]` [Compound 203, (R)-(2,3-dimethoxyphenyl)(1-(4-fluorophenethyl)piperidin-4-yl-2,2,3,3,4,5,5,6,6-d9)methanol] displayed a half-life at 0.25 μM under setting [1] of 0.794 h. Also, the CLint scaled at 0.25 μM under setting [2] is 3.4 mL/min/kg.
In the case of `[2H]C([2H])([2H])Oc1cccc([C@H](O)C2([2H])C([2H])([2H])C([2H])([2H])N(C([2H])([2H])Cc3ccc(F)cc3)C([2H])([2H])C2([2H])[2H])c1OC([2H])([2H])[2H]` [Compound 359, (R)-(2,3-bis(methoxy-d3)phenyl)(1-(2-(4-fluorophenyl)ethyl-1,1-d2)piperidin-4-yl-2,2,3,3,4,5,5,6,6-d9)methanol], under setting [1], the half-life at 0.25 μM is 1.1 h. Also, the CLint scaled at 0.25 μM under setting [2] was 2.4 mL/min/kg.
On to `[2H]C([2H])([2H])Oc1c(OC)cccc1[C@H](O)C1CCN(CCc2ccc(F)cc2)CC1` [Compound 131, (R)-(1-(4-fluorophenethyl)piperidin-4-yl)(3-methoxy-2-(methoxy-d3)phenyl)methanol], for which the half-life at 0.25 μM under setting [3] stood at 1.19 h. Moreover, under setting [4], the CLint scaled at 0.25 μM is 2.4 mL/min/kg.
